Experimental data: patent US20150072988A1, “USE OF N-(4-((3-(2-AMINO-4-PYRIMIDINYL)-2-PYRIDINYL)OXY)PHENYL)-4-(4-METHYL-2-THIENYL)-1-PHTHALAZINAMINE IN COMBINATION WITH HISTONE DEACETYLASE INHIBITORS FOR TREATMENT OF CANCER” (THE JOHNS HOPKINS UNIVERSITY, priority 2012, published 2015)

Test system: phospho-histone H3
Experiment: Immunoblotting of phospho-histone H3 in prostate cells
Type: cell-based
Details: single agent treatment
Procedure: Prostate cancer cell lines (DU-145, LNCaP, PC3) were obtained from ATCC. Cells were grown in RPMI-1640 (Invitrogen) with 10% Fetal Bovine Serum (FBS) (Gemini) and maintained in a […] humidified incubator supplemented with 5% CO2. Sodium salt of VPA (Sigma-Aldrich) was prepared in RPMI at a 1M stock on the day of treatment of the cells. Vorinostat (SAHA) (AtonPharma) and AMG 900 (Amgen) were maintained in 10 mM DMSO stock solutions at −20° C. and diluted in RPMI upon use. For combination studies, compounds were administered concomitantly.
Western blotting was performed as described previously. Kachhap S K, Rosmus N, et al. “Downregulation of homologous recombination repair genes by HDAC inhibition in prostate cancer is mediated through the E2F1 transcription factor”, PLoS One 2010;5:e11208. Loading volumes equalized to 20 μg of total protein were used. Primary antibodies were diluted 1:1000 in blocking solution with the exceptions of vinculin and phosphorylated aurora A-C, which were diluted 1:4000 and 1:500, respectively. Conjugated secondary antibodies were diluted 1:4000 in blocking solution. For blocking solution 5% milk in TBST (100 mM Tris-HCl ph 7.4, 0.1% Tween20, 150 mM NaCl in H2O) was used for p21, cyclin B1, vinculin, cleaved PARP and all secondary antibodies; 5% BSA in TBST was used for the primary antibodies phosphorylated aurora, and phosphorylated and total H3. Blots were developed on film and scanned into a computer at 300 dots per inch (dpi). Densitometric analyses were performed using ImageJ (Research Services Branch, National Institute of Mental Health).

SMILES	expression of phospho-histone H3 (pH3)
Cc1csc(-c2nnc(Nc3ccc(Oc4ncccc4-c4ccnc(N)n4)cc3)c3ccccc23)c1 [AMG 900, N-(4-((3-(2-amino-4-pyrimidinyl)-2-pyridinyl)oxy)phenyl)-4-(4-methyl-2-thienyl)-1-phthalazinamine]	decreased
CCCC(CCC)C(=O)O [valproic acid]	decreased
O=C(CCCCCCC(=O)Nc1ccccc1)NO [vorinostat]	decreased
